We go through 17 compounds from ChEMBL document CHEMBL4811276, “WITHDRAWN: Discovery of indoline derivatives as anticancer agents via inhibition of tubulin polymerization” (Bioorg Med Chem Lett, 2021).

Activity calls are given as the source filed them. The calls are words filed in the database; no cut-off is given here. A value given as a limit tells only on which side of the number the result lay.

One test relates to MGC-803. Put plainly: Antiproliferative activity against human MGC-803 cells assessed as inhibition of cell proliferation measured after 48 hrs by CCK8 assay. The test is classed as functional, cell-based. To be noted: MGC-803, 48 h.
The test system of the next test is KYSE-30. Put plainly: Antiproliferative activity against human KYSE-30 cells assessed as inhibition of cell proliferation measured after 48 hrs by CCK8 assay. The test is classed as functional, cell-based. To be noted: KYSE-30, 48 h. A general note: Tetrazolium assays rely on reduction of a dye to a coloured formazan, in cell work by metabolically active cells.

In the next test the test system is A549. The test is described as follows: Antiproliferative activity against human A549 cells assessed as inhibition of cell proliferation measured after 48 hrs by CCK8 assay. The test is classed as functional, cell-based. The settings on record: A549, 48 h.
Test [1] concerns KYSE-450. The test is described as follows: Antiproliferative activity against human KYSE-450 cells assessed as inhibition of colony formation at 0.188 uM measured after 7 days by colony formation assay. The test is classed as functional, cell-based. The settings on record: time 7.0 day.
Test [2] deals with KYSE-450. Put plainly: Antiproliferative activity against human KYSE-450 cells assessed as inhibition of cell proliferation measured after 48 hrs by CCK8 assay. To be noted: KYSE-450, 48 h. The test is classed as functional, cell-based.
In another test the target is Tubulin. The test is described as follows: Inhibition of tubulin polymerization in human KYSE-450 cells measured by EBI competition assay relative to colchicine. The test is classed as cell-based.
The test system of test [3] is KYSE-450. The test is described as follows: Antiproliferative activity against human KYSE-450 cells assessed reduced cell viability at 0.313 to 2.5 uM. The test is classed as functional, cell-based. To be noted: dose 0.313-2.5 µM, time 20-40 hrs, TDE = time-dependent effect.
In test [4] the test system is KYSE-450. The test is described as follows: Induction of apoptosis in human KYSE-450 cells assessed by smaller nucleus at 0.313 to 2.5 uM measured after 48 hrs by DAPI staining based microscopic method. The test is classed as functional, cell-based. To be noted: dose 0.313-2.5 µM.
Test [5] deals with KYSE-450. The test is described as follows: Induction of apoptosis in human KYSE-450 cells assessed by concentrated nucleus at 0.313 to 2.5 uM measured after 48 hrs by DAPI staining based microscopic method. To be noted: dose 0.313-2.5 µM. The test is classed as functional, cell-based.
For test [6], the system named is KYSE-450. The test is described as follows: Antiproliferative activity against human KYSE-450 cells assessed reduced cell viability measured after 20 to 60 hrs. To be noted: dose 0.313-2.5 µM, time 20-60 hrs. The test is classed as functional, cell-based.
The target of a further test is Tubulin (Homo sapiens) (UniProt P68371+Q9H4B7+P0DPH7+P68366+Q13509+Q71U36+P04350+Q3ZCM7+P07437+P68363+Q9BQE3+Q6PEY2+Q13885+Q9BVA1+Q9BUF5). Put plainly: Inhibition of tubulin polymerization in human KYSE-450 cells assessed by disorganised spindle at 1.25 to 2.5 uM measured after 48 hrs by immunoflourescence assay relative to colchicine. The test is classed as cell-based. The settings on record: dose 1.25-2.5 µM.

In a further test the test system is KYSE-510. The test is described as follows: Antiproliferative activity against human KYSE-510 cells assessed as inhibition of cell proliferation measured after 48 hrs by CCK8 assay. The test is classed as functional, cell-based. The settings on record: KYSE-510, 48 h.
Test [7] deals with KYSE-450. Put plainly: Induction of apoptosis in human KYSE-450 cells assessed by round cells at 0.313 to 2.5 uM measured after 48 hrs by DAPI staining based microscopic method. The test is classed as functional, cell-based. To be noted: dose 0.313-2.5 µM.
Test [8] relates to KYSE-450. Put plainly: Antiproliferative activity against human KYSE-450 cells assessed reduced cell viability at 1 to 80 uM measured after 48 hrs. The test is classed as functional, cell-based. The settings on record: dose 1-80 µM.
The next test deals with ECa-109 cell line. The test is described as follows: Antiproliferative activity against human Eca-109 cells assessed as inhibition of cell proliferation measured after 48 hrs by CCK8 assay. The test is classed as functional, cell-based. The settings on record: ECa-109, 48 h.

The term IC50 denotes the midpoint of a concentration-inhibition curve. Take `COc1ccc(CC(=O)N2CCc3cc(Br)ccc32)cc1`: the values for the half-inhibitory concentration (IC50) with MGC-803, with KYSE-30 and with A549 were 28.7 µM, greater than 40 µM and 24.8 µM, respectively.
For `Cc1ccc(CC(=O)N2CCc3cc(Br)ccc32)cc1`, in that order: 38.2 µM, 33.2 µM and greater than 40 µM.
For `O=C(c1ccc(F)cc1)N1CCc2cc(Br)ccc21`, in that order: 24.1 µM, 22.1 µM and 18.9 µM.
In the case of `COc1cc(C(=O)N2CCc3cc(Br)ccc32)cc(OC)c1OC`, the outcome with KYSE-450 [1], in the test on KYSE-450 [4], with KYSE-450 [5], in the test on KYSE-450 [7] and in the test on KYSE-450 [8] was Active. Moreover, the IC50 in the test on MGC-803 was 1.84 µM; in the test on KYSE-450 [2], 1.49 µM; at Tubulin, 3.4 µM; in the test on KYSE-30 it was 1.61 µM; in the test with KYSE-510, 2.08 µM; in the test on A549, 6.82 µM. For the same compound, the concentration for half-maximal inhibition (IC50) in the test on ECa-109 cell line was 2.24 µM. The Activity result with KYSE-450 [3] was “Tde”; in the test with KYSE-450 [6] it was “Dose-Dependent Effect”. In addition, the inhibition entry at Tubulin (Homo sapiens) is “Active”.
As for `O=C(c1ccccc1)N1CCc2cc(Br)ccc21`, the values for the IC50 in the test with MGC-803, with KYSE-30 and in the test on A549 were 28.5 µM, 20.3 µM and greater than 40 µM, respectively.
For `COc1ccc(C(=O)N2CCc3cc(Br)ccc32)cc1`, in that order: 18.8 µM, 18.9 µM and 21.1 µM.
The corresponding values for `COc1cc(CC(=O)N2CCc3cc(Br)ccc32)cc(OC)c1OC` are 22.4 µM, 20.2 µM and 24.8 µM.
The corresponding values for `COc1cc(C(=O)N2CCc3ccccc32)cc(OC)c1OC` are 7.57 µM, 7.72 µM and 22 µM.
For the compound `COc1cc2c(c(OC)c1OC)-c1ccc(OC)c(=O)cc1[C@@H](NC(C)=O)CC2` [COLCHICINE], the IC50 with MGC-803 stood at 1.07 µM; in the test with KYSE-30, 0.28 µM; in the test with A549, 0.19 µM.
The corresponding values for `COc1cc(C(=O)N2CCc3cc([N+](=O)[O-])ccc32)cc(OC)c1OC` are 8.32 µM, 6.55 µM and 17.7 µM.
On to `COc1cc(C(=O)N2CCCc3ccccc32)cc(OC)c1OC`, for which the values for the concentration for half-maximal inhibition (IC50) in the test with MGC-803, in the test on KYSE-30 and with A549 were 4.41 µM, 6.72 µM and 23.7 µM, respectively.
For `COc1cc(C(=O)N2CCCCc3ccccc32)cc(OC)c1OC`, in that order: 4.3 µM, 16.6 µM and 21.7 µM.
For `O=C(Cc1ccccc1)N1CCc2cc(Br)ccc21`, in that order: 82.8 µM, greater than 40 µM and 28.5 µM.
The corresponding values for `O=C(Cc1ccc(Br)cc1)N1CCc2cc(Br)ccc21` are 35.8 µM, 20.7 µM and greater than 40 µM.
As to `Cc1ccc(C(=O)N2CCc3cc(Br)ccc32)cc1`, the IC50 in the test with MGC-803 is greater than 40 µM; in the test on KYSE-30 it was greater than 40 µM; with A549, 38.9 µM.
Regarding `O=C(c1ccc(Br)cc1)N1CCc2cc(Br)ccc21`, the IC50 was 33.6 µM in the test on MGC-803, 26.8 µM with KYSE-30 and greater than 40 µM in the test with A549.
On to `O=C(Cc1ccc(F)cc1)N1CCc2cc(Br)ccc21`, for which the IC50 with MGC-803, in the test on KYSE-30 and in the test on A549 was greater than 40 µM each time.
